Legend:
[1] = system: MC-38 cells endogenously expressing MDR1 P-glycoprotein (Pgp), engineered to express Nectin-4; test: In vitro efficacy of ADCs in Pgp-expressing cancer model (CTG); type: cell-based, murine; settings: for anti-tumor activity in presence or absence of the Pgp inhibitor cyclosporine: 150 nM ADC, normalized to control antibody, cyclosporin A 5 μM, FIG. 10B
Protocol: MC-38 cells that endogenously express MDR1 P-glycoprotein (Pgp) were engineered to express Nectin-4 and cultured in DMEM+10% FBS. Cells were either treated with vehicle (DSMO) or with cyclosporin A (5 μM, stock solution in DMSO) known to act as an inhibitor of Pgp, in presence of ADCs.
The ADCs and the equivalent isotype control ADCs were used at dose range from 150 to 2.3 10^−3 nM. After five days of co-incubation with cells, cell viability was measured by addition of Cell Titer Glo™ (CTG) substrate. Luminescence vs. Ab concentration was plotted.

[2] = system: UC (patients); settings: EV-201 Phase 2 study; cited from earlier work
[3] = system: SUM185 cells; test: Comparative in vitro killing of SUM185 cells (model of anti-HER2 resistance), CTG; type: cell-based, human; settings: 5 days, 5E7 ADC DAR=8, PADCEV DAR=4, FIG. 5
Protocol: This setting was used as a model of anti-HER2 resistance. SUM185 cells express Nectin-4 at relatively high levels, with Nectin-4 expression levels about twice that of HER2 in these cells (see Example 1). In this experiment, the 5E7 antibody was tested as an ADC having DAR=8 along with PADCEV™ (DAR=4, specification for FDA-approved PADCEV™) and control antibodies all conjugated with the same toxin at equivalent drug to antibody ratios. 5E7 was conjugated with a camptothecin analogue Dxd via the ggfg-Dxd linker.
Briefly, dose-ranges of each tested Ab (starting point 150 nM, dilution factor 2 for 3 points, then 5 for 5 points) were incubated on cells for 5 days before cell viability measurement by addition of CTG substrate. Luminescence vs. Ab concentration was plotted on graph.
For each ADC, a concentration range of ADC was incubated with nectin-4-expressing cells. After incubation, CTG substrate was added at 1:1 ratio and the luminescent signal was read with a plate reader (Enspire), allowing quantification of the ATP present (indicator of metabolically active cells) which was proportional to cell viability.

[4] = system: SUM190 cells subcutaneously engrafted in CB17-SCID mice; test: In vivo efficacy of Dxd and exatecan ADCs in SUM190 model; parameters: species or system mouse; settings: single i.v. injection 10 mg/kg; FIG. 9C
Protocol: Human breast cancer cell line SUM190PT was cultured in the following cell culture medium containing Ham's F12, FBS 1 g/L, HEPES 10 mM, Ethanolamine 5 mM, Insulin 5 μg/mL, Hydrocortisone 1 μg/mL, Apo-Transferrin 5 μg/mL, Triiodo Thyronine (T3) 6.7 ng/ml, Sodium selenite 8.7 ng/ml.
Immunodeficient CB17-SCID mice were used at 7 to 8 weeks of age. […] The ggfg-Dxd linker will release Dxd (deruxtecan) upon cleavage and the PEG (8U)-Val-Ala-PAB-Exatecan linker will release exatecan upon cleavage.
SUM190 cells were subcutaneously engrafted in CB17-SCID immunodeficient mice at the dose of 0.5 million in 100 μl of Matrigel containing growth factor diluted at ½ in PBS. At day 21, when tumors reached a mean volume at 146.9±63.2 mm^3 or 213.2±77.5 mm^3 depending on the experiment, mice were randomized into groups of 8 or 9 mice depending on the experiment and treated intravenously with a single injection of 3 or 10 mg/kg body weight ADC or PBS as control. Tumor growths were followed twice a week. Kaplan Meier survival curves were established by using GraphPad Prism V7 software according to the following criteria: when the tumor volume reached 1500 mm^3, mice were euthanized and considered dead on the day of sacrifice (D). When tumors were highly necrotic, mice were euthanized and considered dead on the same day (D).

Molecule: PADCEV™
- anti-tumor activity in presence or absence of the Pgp inhibitor cyclosporine [1]: negatively affected by Pgp
- CR (complete response rate) [2]: 12%
- ORR (objective response rate) [2]: 44%
- discontinuation due to clinical symptoms [2]: 5%
- discontinuation due to progressive disease as assessed by RECIST [2]: 48%
- patients that discontinued experienced adverse events, notably neuropathy [2]: 18%
- killing of SUM185 cells / reduction of cell viability [3]: able to kill the SUM185 more efficiently than ENHERTU™

B1: 5E7-exatecan: 5E7 conjugated to the exatecan linker PEG (8U)-Val-Ala-PAB-Exatecan (drawing 79), DAR=8 (conjugate)
VH: QVQLQQPGAELVKPGASVKLSCKASGYIFTSYWMHWVKQRPGQGLEWIGEIDPSDSYTNYNQKFKGKATLTLDKSSSTTYMQLSSLTSEDSAVYYCVRGYGNYGDYWGQGTTLTVSSASTKGP
VL: DVVMTQAAFSNPVTLGTSASISCRSSKSLLHSNGITYLYWYLQKPGQSPQLLIYQMSNLASGVPDRFSSSGSGTDFTLRISRVEAEDVGVYYCAQNLELPWTFGGGTKLEIKRTVAAP
- efficiency in controlling tumor growth in mice [4]: higher efficiency in controlling tumor growth in mice compared 5E7 conjugated with ggfg-Dxd
- anti-tumor activity in presence or absence of the Pgp inhibitor cyclosporine [1]: highly effective
- decrease of cell viability (luminescence) ([1]; MC-38 Pgp/Nectin-4 cells, 5 days, setting of drug resistance, FIG. 10A): highly potent to decrease cell viability

— patent US20250297004A1, “NECTIN-4 BINDING AGENTS” (INNATE PHARMA, priority 2022, published 2025)
